Reference: patent US20140142128A1, “METHODS OF TREATING A DISEASE OR DISORDER ASSOCIATED WITH BRUTON'S TYROSINE KINASE” (Celgene Avilomics Research, Inc., priority 2012, published 2014)

How the values were obtained:
relapsed/refractory CLL = conditions: lenalidomide 25 mg for 21 days of every 28-day cycle; cited from earlier work
[1] = tested on: Btk responsive site (Tyr1217) on PLCγ2; experiment: PLCγ2 phosphorylation in Ramos cells; assay type: cell-based; conditions: human Burkitt lymphoma cell line, read-out: EC50, inhibition of phosphorylation of the Btk responsive site (Tyr1217) on PLCγ2

Structure (SMILES): Nc1cccc2c1CN(C1CCC(=O)NC1=O)C2=O (stereo not drawn) [lenalidomide, 3-(4-amino-1-oxo-1,3-dihydro-2H-isoindol-2-yl)piperidine-2,6-dione]
- Clinical responses (CR or PR) in subjects refractory to fludarabine (relapsed/refractory CLL): 30%
- Clinical responses (CR or PR) in subjects with del (11)(q23) and/or del (17)(p13.1) adverse cytogenetics (relapsed/refractory CLL): 47%

Structure (SMILES): C=CC(=O)Nc1cccc(Nc2nc(Nc3ccc(OCCOC)cc3)ncc2F)c1 [Compound 1, N-(3-(5-fluoro-2-(4-(2-methoxyethoxy)phenylamino)pyrimidin-4-ylamino)phenyl)acrylamide]
- EC50 [1]: 1 to 10 nM
